Source: patent publication US8575158B2, “1-phenyl-substituted heterocyclyl derivatives and their use as prostaglandin D2 receptor modulators” (Actelion Pharmaceuticals Ltd., priority 2010, dated 2013)

Biological target: T1, hCRTH2 receptor (Homo sapiens, UniProt Q9Y5Y4)
T1 construct: expressed in transfected cells; host or cells: HEK293
T1 sequence (Q9Y5Y4 1-395): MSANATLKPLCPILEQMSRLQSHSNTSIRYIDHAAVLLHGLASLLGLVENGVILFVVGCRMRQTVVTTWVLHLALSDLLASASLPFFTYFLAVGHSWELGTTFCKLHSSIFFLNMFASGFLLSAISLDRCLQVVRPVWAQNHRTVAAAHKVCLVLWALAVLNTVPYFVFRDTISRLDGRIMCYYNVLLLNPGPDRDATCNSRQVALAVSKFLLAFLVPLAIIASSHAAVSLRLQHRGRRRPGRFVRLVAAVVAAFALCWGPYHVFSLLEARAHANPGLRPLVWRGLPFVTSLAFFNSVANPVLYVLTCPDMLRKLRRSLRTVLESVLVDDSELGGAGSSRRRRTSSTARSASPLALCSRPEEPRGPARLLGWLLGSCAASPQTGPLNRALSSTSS
Assay: Radioligand displacement assay (3H-PGD2) on hCRTH2 receptor membranes
Format: binding
Conditions: antagonistic activity

[1] = 3H-PGD2 displacement on HEK293-hCRTH2 membrane fragments
[2] = 3H-PGD2 radioligand displacement, HEK293-hCRTH2 membranes

| SMILES | IC50 [1] | IC50 [2] |
| --- | --- | --- |
| CN(C)S(=O)(=O)c1ccc(OCC(=O)O)c(C2c3ccccc3CCN2C(=O)OCc2ccccc2)c1 (racemic) [Example 17, (±)-1-(2-Carboxymethoxy-5-dimethylsulfamoyl-phenyl)-3,4-dihydro-1H-isoquinoline-2-carboxylic acid benzyl ester] | 0.889 µM |  |
| O=C(O)COc1ccc(Cl)cc1C1c2cccc(F)c2CCN1C(=O)COCc1ccccc1Cl (racemic) [Example 120, (±)-(4-Chloro-2-{2-[2-(2-chloro-benzyloxy)-acetyl]-5-fluoro-1,2,3,4-tetrahydro-isoquinolin-1-yl}-phenoxy)-acetic acid] | 0.0333 µM |  |
| O=C(O)COc1ccc(F)cc1C1c2ccccc2CCN1C(=O)COCc1ccc(Cl)cc1 (racemic) [Example 191] | 0.0333 µM |  |
| CC1(C)CN(C(=O)OCc2ccccc2)C(c2cc(Cl)ccc2OCC(=O)O)c2ccccc21 (racemic) [Example 180, (±)-1-(2-Carboxymethoxy-5-chloro-phenyl)-4,4-dimethyl-3,4-dihydro-1H-isoquinoline-2-carboxylic acid benzyl ester] | 0.151 µM |  |
| CC[C@@H]1C[C@H]1C(=O)N1CCc2ccccc2[C@H]1c1cc(Cl)ccc1OCC(=O)O [Example 460] |  | 0.0678 µM |
| O=C(O)COc1ccc(Cl)cc1C1c2ccccc2CCN1C(=O)CCOc1ccc(F)cc1 (racemic) [Example 102, (±)-(4-Chloro-2-{2-[3-(4-fluoro-phenoxy)-propionyl]-1,2,3,4-tetrahydro-isoquinolin-1-yl}-phenoxy)-acetic acid] | 0.00753 µM |  |
| Cc1ccc(COC(=O)N2CCc3ccccc3C2c2cc(Cl)ccc2OCC(=O)O)c(C)n1 (racemic) [Example 256] | 0.0141 µM |  |
| Cc1nn(CCC(=O)N2Cc3ccccc3C2c2cc(Cl)ccc2OCC(=O)O)c2c(F)cccc12 (single isomer, unassigned) [Example 540] |  | 0.633 µM |
| Cc1ncc(COC(=O)N2CCc3ccccc3[C@H]2c2cc(Cl)ccc2OCC(=O)O)s1 [Example 277, (S)-1-(2-Carboxymethoxy-5-chloro-phenyl)-3,4-dihydro-1H-isoquinoline-2-carboxylic acid 2-methyl-thiazol-5-ylmethyl ester] | 0.00077 µM |  |
| N#Cc1ccc(OCC(=O)O)c([C@@H]2c3cccc(F)c3CCN2C(=O)OCc2ccccc2)c1 [Example 32, (S)-1-(2-Carboxymethoxy-5-cyano-phenyl)-5-fluoro-3,4-dihydro-1H-isoquinoline-2-carboxylic acid benzyl ester] | 0.00199 µM |  |
| O=C(O)COc1ccc(Cl)cc1C1c2ccc(F)cc2CCN1C(=O)COCc1ccccc1Cl (racemic) [Example 437] |  | 0.00523 µM |
| CCCCOC(=O)N1CCc2ccccc2C1c1cc(F)ccc1OCC(=O)O (racemic) [Example 167] | 0.042 µM |  |
| Cn1cc(CC(=O)N2CCc3ccccc3C2c2cc(F)ccc2OCC(=O)O)c2ccccc21 (racemic) [Example 137, (±)-(4-Fluoro-2-{2-[2-(1-methyl-1H-indol-3-yl)-acetyl]-1,2,3,4-tetrahydro-isoquinolin-1-yl}-phenoxy)-acetic acid] | 0.314 µM |  |
| O=C(O)COc1ccc(Cl)cc1C1c2ccccc2CCN1C(=O)CCCc1ccc(F)cc1 (racemic) [Example 103, (±)-(4-Chloro-2-{2-[4-(4-fluoro-phenyl)-butyryl]-1,2,3,4-tetrahydro-isoquinolin-1-yl}-phenoxy)-acetic acid] | 0.0112 µM |  |
| O=C(O)COc1ccc(Cl)cc1C1c2ccccc2CN1C(=O)CCn1ncc2ccc(Cl)cc21 (stereo not drawn) [Example 549] |  | 0.18 µM |
| Cc1noc(C)c1S(=O)(=O)NCC(=O)N1CCc2ccccc2C1c1cc(F)ccc1OCC(=O)O (racemic) [Example 206] | 0.819 µM |  |
| O=C(O)COc1ccc(Cl)cc1C1c2ccccc2CCN1C(=O)OCc1cccc(Cl)c1 (racemic) [Example 364] |  | 0.0165 µM |
| O=C(O)COc1ccc(Cl)cc1C1c2ccccc2CCN1C(=O)CCc1cnnn1-c1ccccc1 (racemic) [Example 161] | 0.116 µM |  |
| O=C(O)COc1ccc(Cl)cc1[C@@H]1c2ccc(F)cc2CCN1C(=O)OCc1cccc(F)c1F [Example 354, (S)-1-(2-Carboxymethoxy-5-chloro-phenyl)-6-fluoro-3,4-dihydro-1H-isoquinoline-2-carboxylic acid 2,3-difluoro-benzyl ester] |  | 0.00772 µM |
| Cc1ccc(OCCC(=O)N2CCc3ccccc3C2c2cc(Cl)ccc2OCC(=O)O)cc1 (racemic) [Example 88, (±)-{4-Chloro-2-[2-(3-p-tolyloxy-propionyl)-1,2,3,4-tetrahydro-isoquinolin-1-yl]-phenoxy}-acetic acid] | 0.148 µM |  |
| O=C(O)COc1ccc(F)cc1C1c2ccccc2CCN1C(=O)/C=C/c1ccccc1F (racemic) [Example 141, (±)-(4-Fluoro-2-{2-[(E)-3-(2-fluoro-phenyl)-acryloyl]-1,2,3,4-tetrahydro-isoquinolin-1-yl}-phenoxy)-acetic acid] | 0.835 µM |  |

| SMILES | IC50 [1] | IC50 [2] |
| --- | --- | --- |
| Cc1cnn(COC(=O)N2CCc3cc(F)ccc3[C@H]2c2cc(Cl)ccc2OCC(=O)O)c1 [Example 342, (S)-1-(2-Carboxymethoxy-5-chloro-phenyl)-6-fluoro-3,4-dihydro-1H-isoquinoline-2-carboxylic acid 4-methyl-pyrazol-1-ylmethyl ester] |  | 0.0179 µM |
| O=C(O)COc1ccc(F)cc1C1c2cc(F)ccc2CCN1C(=O)OCc1ccccc1 (racemic) [Example 41, (±)-1-(2-Carboxymethoxy-5-fluoro-phenyl)-7-fluoro-3,4-dihydro-1H-isoquinoline-2-carboxylic acid benzyl ester] | 0.0248 µM |  |
| NC(=O)c1ccc(OCC(=O)O)c(C2c3ccccc3CCN2C(=O)OCc2ccccc2)c1 (racemic) [Example 213, (±)-1-(5-Carbamoyl-2-carboxymethoxy-phenyl)-3,4-dihydro-1H-isoquinoline-2-carboxylic acid benzyl ester] | 0.344 µM |  |
| Cc1ccccc1CCC(=O)N1CCc2c(F)cccc2C1c1cc(Cl)ccc1OCC(=O)O (racemic) [Example 118, (±)-{4-Chloro-2-[5-fluoro-2-(3-o-tolyl-propionyl)-1,2,3,4-tetrahydro-isoquinolin-1-yl]-phenoxy}-acetic acid] | 0.0954 µM |  |
| O=C(O)COc1ccc(F)cc1C1c2ccccc2CCN1C(=O)Oc1ccccc1 (racemic) [Example 169] | 0.451 µM |  |
| O=C(O)COc1ccc(F)cc1C1c2ccc(F)c(Br)c2CCN1C(=O)OCc1ccccc1 (racemic) [Example 40, (±)-5-Bromo-1-(2-carboxymethoxy-5-fluoro-phenyl)-6-fluoro-3,4-dihydro-1H-isoquinoline-2-carboxylic acid benzyl ester] | 0.023 µM |  |
| O=C(O)COc1ccc(Cl)cc1C1c2ccccc2CCN1C(=O)CCN1CCCc2ccccc21 (racemic) [Example 449] |  | 0.0261 µM |
| O=C(O)COc1ccc(Cl)cc1C1c2ccccc2CCN1C(=O)CCn1ccc2cc(Cl)ccc21 (racemic) [Example 385] |  | 0.0512 µM |
| O=C(O)COc1ccc(Cl)cc1C1c2ccccc2CCN1C(=O)CN1Cc2ccccc2C1 (racemic) [Example 444] |  | 0.667 µM |
| O=C(O)COc1ccc(Cl)cc1C1c2ccc(F)cc2CCN1C(=O)CCCc1ccccc1F (racemic) [Example 436] |  | 0.00573 µM |
| Cc1cccc(COC(=O)N2CCc3ccccc3C2c2cc(Cl)ccc2OCC(=O)O)c1 (racemic) [Example 239] | 0.0177 µM |  |
| O=C(O)COc1ccc(Cl)cc1C1c2ccccc2CCN1C(=O)CCCc1ccc(Cl)cc1 (racemic) [Example 93, (±)-(4-Chloro-2-{2-[4-(4-chloro-phenyl)-butyryl]-1,2,3,4-tetrahydro-isoquinolin-1-yl}-phenoxy)-acetic acid] | 0.0129 µM |  |
| O=C(O)COc1ccc(Cl)cc1C1c2ccccc2CCN1C(=O)[C@@H]1C[C@H]1c1ccc(C(F)(F)F)cc1 (mixture of isomers) [Example 419] |  | 0.958 µM |
| CC(C)COC(=O)N1CCc2ccccc2C1c1cc(F)ccc1OCC(=O)O (racemic) [Example 171] | 0.0477 µM |  |
| Cc1nn(CCC(=O)N2CCc3cc(F)ccc3[C@H]2c2cc(Cl)ccc2OCC(=O)O)c2cccc(F)c12 [Example 391] |  | 0.158 µM |
| Cc1nn(CCC(=O)N2Cc3ccccc3C2c2cc(Cl)ccc2OCC(=O)O)c2cc(F)ccc12 (single isomer, unassigned) [Example 531, (4-Chloro-2-{2-[3-(6-fluoro-3-methyl-indazol-1-yl)-propionyl]-2,3-dihydro-1H-isoindol-1-yl}-phenoxy)-acetic acid] |  | 0.0309 µM |
| Cc1ccccc1COCC(=O)N1CCc2ccccc2C1c1cc(F)ccc1OCC(=O)O (racemic) [Example 192] | 0.0111 µM |  |
| O=C(O)COc1ccc(Cl)cc1[C@@H]1c2ccc(F)cc2CCN1C(=O)OCCc1cccc(F)c1 [Example 336, (S)-1-(2-Carboxymethoxy-5-chloro-phenyl)-6-fluoro-3,4-dihydro-1H-isoquinoline-2-carboxylic acid 2-(3-fluoro-phenyl)-ethyl ester] |  | 0.0115 µM |
| O=C(O)COc1ccc(Cl)cc1C1c2ccccc2CCN1C(=O)CCCc1ccccc1F (racemic) [Example 115, (±)-(4-Chloro-2-{2-[4-(2-fluoro-phenyl)-butyryl]-1,2,3,4-tetrahydro-isoquinolin-1-yl}-phenoxy)-acetic acid] | 0.027 µM |  |
| O=C(O)COc1ccc(Cl)cc1C1c2ccccc2CN1C(=O)C1CC1c1cccc(Cl)c1 (stereo not drawn) [Example 524, (4-Chloro-2-{2-trans-[2-(3-chloro-phenyl)-cyclopropanecarbonyl]-2,3-dihydro-1H-isoindol-1-yl}-phenoxy)-acetic acid] |  | 0.0813 µM |
| Cc1cc(C)c(COC(=O)N2CCc3ccccc3C2c2cc(Cl)ccc2OCC(=O)O)c(C)c1 (racemic) [Example 251] | 0.0123 µM |  |
